# Experimental data taken from patent US8835445B2, “Dihydrofolate reductase inhibitors” (Trius Therapeutics, Inc., priority 2010, dated 2014).
# Read-outs that look alike come from different tables or passages of the source.
# What was measured:
# S. aureus = experiment: Antibacterial activity (MIC), whole-cell bacterial growth inhibition; type: cell-based, Staphylococcus aureus; settings: Staphylococcus aureus
# From the text: Antibacterial activity as measured by the minimal inhibitory concentrations (MIC) and minimal bactericidal concentrations of compounds are well known (see., e.g., National Committee for Clinical Laboratory Standards 2000 Performance standards for antimicrobial disk susceptibility tests: approved standard, 7th ed. M2-A7, vol. 20, no. 1, Committee for Clinical Laboratory Standards, Wayne, Pa.) In vitro testing for antibacterial activity may be accomplished through use of a whole-cell bacterial growth inhibition assay. For example, an […] assay identifies a substance that inhibits bacterial growth. Microtiter plates are prepared with serial dilutions of the test compound, adding to the preparation a given amount of growth substrate, and providing a preparation of bacteria. Inhibition of bacterial growth is determined, for example, by observing changes in optical densities of the bacterial cultures. Inhibition of bacterial growth is determined, for example, by comparing (in the presence and absence of a test compound) the rate of growth or the absolute growth of bacterial cells. Inhibition includes a reduction of one of the above measurements by at least 20%.
# human DHFR = human DHFR (Homo sapiens (Human), UniProt P00374); experiment: DHFR enzymatic inhibition (Ki), human DHFR; type: biochemical
# S. aurues DHFR = S. aurues DHFR (Staphylococcus aureus, UniProt P0A017); experiment: biochemical; type: biochemical
# [1] = S. aureus in 20% serum, read-out: MIC in μg/ml S. aureus in 20% serum
# [2] = S. aureus, read-out: MIC in μg/ml S. aureus
# Chain of human DHFR (P00374 whole entry): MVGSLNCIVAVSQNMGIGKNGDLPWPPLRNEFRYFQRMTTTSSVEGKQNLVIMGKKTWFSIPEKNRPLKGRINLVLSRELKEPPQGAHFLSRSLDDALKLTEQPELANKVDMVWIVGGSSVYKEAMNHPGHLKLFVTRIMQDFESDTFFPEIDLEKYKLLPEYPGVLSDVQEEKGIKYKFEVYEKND
compound,measurement,setting,value
"CCOc1ccc2ccccc2c1-c1cc2nc(N)nc(N)c2cc1C [Compound 31, 7-(2-ethoxynaphthalen-1-yl)-6-methylquinazoline-2,4-diamine]",MIC,S. aureus; [1],0.5 µg/mL
same,MIC,S. aureus; [2],≤ 0.125 µg/mL
same,Ki,human DHFR,4.5 nM
same,Ki,S. aurues DHFR; S. aureus DHFR,0.026 nM
"Cc1cc2nc(-c3ccccn3)n(-c3ccc4c(N)nc(N)nc4c3)c2cc1C [Compound 16, 7-(5,6-dimethyl-2-(pyridin-2-yl)-1H-benzo[d]-imidazol-1-yl)quinazoline-2,4-diamine]",MIC,S. aureus; [1],0.25 µg/mL
same,MIC,S. aureus; [2],≤ 0.125 µg/mL
same,Ki,human DHFR,572 nM
same,Ki,S. aurues DHFR; S. aureus DHFR,0.022 nM
"Cc1cc2nc(N3CCOCC3)n(-c3ccc4c(N)nc(N)nc4c3)c2cc1C [Compound 19, 7-(5,6-dimethyl-2-morpholino-1H-benzo[d]-imidazol-1-yl)quinazoline-2,4-diamine]",MIC,S. aureus; [1],4 µg/mL
same,MIC,S. aureus; [2],1 µg/mL
same,Ki,human DHFR,1090 nM
same,Ki,S. aurues DHFR; S. aureus DHFR,0.6 nM
"Nc1ccc(-c2ccc3c(N)nc(N)nc3c2)cc1 [Compound 4, 7-(4-aminophenyl)quinazoline-2,4-diamine]",MIC,S. aureus; [1],2 µg/mL
same,MIC,S. aureus; [2],4 µg/mL
same,Ki,human DHFR,702 nM
same,Ki,S. aurues DHFR; S. aureus DHFR,2.7 nM
"CC(=O)c1cccc(-c2ccc3c(N)nc(N)nc3c2)c1 [Compound 6, 1-(3-(2,4-diaminoquinazolin-7-yl)-phenyl)ethanone]",MIC,S. aureus; [1],8 µg/mL
same,MIC,S. aureus; [2],4 µg/mL
same,Ki,human DHFR,323 nM
same,Ki,S. aurues DHFR; S. aureus DHFR,4.4 nM
"CCOc1ccc(-c2cccc(NS(C)(=O)=O)c2)cc1-c1ccc2c(N)nc(N)nc2c1 [Compound 30, N-(3′-(2,4-diaminoquinoazlin-7-yl)-4′-ethoxybiphenyl-3-yl)methanesulfonamide]",MIC,S. aureus; [1],2 µg/mL
same,MIC,S. aureus; [2],≤ 0.5 µg/mL
same,Ki,human DHFR,5.8 nM
same,Ki,S. aurues DHFR; S. aureus DHFR,0.02 nM
"COc1ccc(OC)c(-c2cc3nc(N)nc(N)c3cc2C)c1 [Compound 8, 7-(2,5-dimethoxyphenyl)-6-methylquin-azoline-2,4-diamine]",MIC,S. aureus; [1],1 µg/mL
same,MIC,S. aureus; [2],1 µg/mL
same,Ki,human DHFR,27.5 nM
same,Ki,S. aurues DHFR,0.66 nM
